From patent US20120214818A1, “METHODS OF TREATING DIASTOLIC DYSFUNCTION AND RELATED CONDITIONS” (THE BOARD OF TRUSTEES OF THE UNIVERSITY OF ILLINOIS, priority 2009, published 2012)

System: myofilaments of skinned left ventricular papillary fiber bundles
Assay: Simultaneous tension and ATPase rate in skinned fiber bundles (second series)
Format: biochemical, mouse
Details: ranolazine 15 min; for Maximum ATPase: 20° C.; for Ktr, the rate constant for force redevelopment: in s-1 (unit assumed)
Description: We measured myofilament response to Ca^2+ under two experimental conditions as described in detail below. In a first series of experiments the skinned fiber bundles were mounted in a force measuring apparatus and sarcomere length (SL) was adjusted to 2.2 μm using a laser diffraction pattern and width and thickness were determined for calculation of cross-sectional area. Force was measured over a range of pCa values Skinned fiber bundles were treated with 10 μmol/L ranolazine for 15 min prior to evaluation. In a second series of experiments under different experimental conditions, we determined steady-state Mg-ATPase activity, while simultaneously measuring isometric tension in skinned fiber bundles as a function of pCa. In all experiments, skinned fibers were treated with ranolazine or DMSO vehicle for 15 min prior to beginning either tension or tension/ATPase rate measurements. Tension generated was computed from the force/cross-sectional area and data were analyzed in the GraphPad Prism software and fit with a sigmoidal modified Hill equation in order to generate tension-pCa curves, Hill coefficients, and pCa50 (pCa value at half-maximum tension). We also determined cross-bridge kinetics employing a quick release/restretch protocol. The rate constant for force redevelopment, Ktr, provides a measure of the rate of cross-bridge entry into the force generating state. In all experiments, only fiber bundles retaining more than 80% of their initial maximum tension were included in the analysis. We treated the fibers with ranolazine from a DMSO stock solution or DMSO alone added to relaxing solution for 15 min prior to the experimental run. Methods for gel electrophoresis analysis of myofilament protein phosphorylation and oxidative modifications are provided below.
Studies with detergent extracted (skinned) fiber bundles: Mice were anesthetized with pentobarbital (50 mg/kg IP), and the hearts were rapidly excised and rinsed in a pH 7.0 ice-cold relaxing solution (HR) composed of (in mM) 10 EGTA, 41.89K-Prop, 6.57 MgCl2, 100 BES, 6.22 ATP, 5 Na azide, and 10 creatine phosphate. The solution also contained 1 μg/ml leupeptin, 2.5 μg/ml pepstatin A, and 50 μM phenylmethylsulfonyl fluoride. Left ventricular papillary muscles were dissected and fiber bundles were prepared as previously described (Wolska et al., J. Physiol. 536: 863-870 (2001)). The fiber bundles were extracted overnight in relaxing solution plus 1% Triton X-100 at 4° C.
In a second series of experiments force and ATPase rate were measured simultaneously using methods and an experimental apparatus previously described (de Tombe et al., Circ Res 76: 734-741 (1995); Wolska et al., Circ Res 84: 745-751 (1999)). The fiber bundles were mounted between a force transducer and displacement motor using aluminum T-clips, and the sarcomere length was set to 2.2 μm using He—Ne laser diffraction (Vahebi et al., Circ Res 96: 740-747 (2005)). The width and diameter were each measured at three points along the fiber bundle. Force per cross-sectional area was used to determine tension. The fiber was contracted initially at a saturating calcium concentration (pCa 4.5) and sarcomere length was again adjusted to 2.2 μm. Sarcomere length remained constant throughout the rest of the experiment.
ATPase activity was measured at 20° C. as previously described and calibrated with rapid injections of ADP (0.5 nmol) with a motor-controlled syringe (de Tombe et al., 1990, supra; Wolska et al., 1999, supra). The fiber was placed in relaxing solution for 2 min, then in the preactivation solution for 2-3 min each time before being placed in the activating solution for 1-2 min (until stabilization of force) and then quickly returned to the relaxing solution. Various contraction-relaxation cycles were carried out using different ratios of total calcium concentration to total EGTA concentration. The final contraction was again at a saturating calcium concentration. […]

COc1ccccc1OCC(O)CN1CCN(CC(=O)Nc2c(C)cccc2C)CC1 (stereo not shown) [ranolazine]
Maximum Tension (DOCA-salt fiber bundles): 27.19 ± 0.54 mN/mm^2 | Passive Tension (DOCA-salt fiber bundles): 0.68 ± 0.40 mN/mm^2 | Tension Cost ΔATPase/ΔTension (DOCA-salt fiber bundles): 10.8 ± 0.8 | Maximum ATPase (DOCA-salt fiber bundles): 326.9 ± 8.7 pmol/s/mg | Ktr, the rate constant for force redevelopment (DOCA-salt fiber bundles): 11.0 ± 1.0 | Maximum Tension (sham fiber bundles): 36.80 ± 0.16 mN/mm^2 | Passive Tension (sham fiber bundles): 0.55 ± 0.33 mN/mm^2 | Tension Cost ΔATPase/ΔTension (sham fiber bundles): 7.1 ± 0.4 | Maximum ATPase (sham fiber bundles): 302.0 ± 9.0 pmol/s/mg | Ktr, the rate constant for force redevelopment (sham fiber bundles): 11.2 ± 0.5
